Experimental findings from patent US6491922B1, “Methods and compounds for treating autoimmune and vascular disease” (Cornell Research Foundation, Inc., priority 1996, dated 2002) are described below.

Entries after “also recorded” stand apart in the source; their conditions may differ.

In data set [1] the test system is HIV p24 antigen, U1 cells. Put plainly: HIV p24 antigen production in chronically HIV-infected U1 cells. The class given is cell-based. The conditions noted are these: 72 h. As to the method:
LPG, the major surface molecule of Leishmania, has macrophage deactivating functions. Based on the ability of LPG to suppress the generation of ROI and cytokine gene expression, we evaluated the potential that LPG may similarly suppress HIV production. FIGS. 27A-D illustrate the effect of 2 μM LPG pretreatment for 2 h on the induction HIV from chronically HIV-infected monocytic and T cell lines respectively, U1 and ACH-2 cells. LPG treatment of U1 cells for 72 h inhibited basal production of HIV p24 antigen at basal and induction in response to PMA, TNF-α and LPS by 90%, 82%, 60% and 66%, respectively (FIGS. 27A, B). The suppression of HIV p24 antigen production was time-dependent (FIG. 27B). […] The inhibition was also time-dependent. The results are the mean of 2 separate experiments and the SD was less than 10%.

Data set [2] concerns THP-1 cells. Put plainly: LPG and LPG fragment binding to THP-1 cells (indirect immunofluorescence, FACS). The conditions noted are these: LPG 1 μM. Details: species or system human.
A further data set deals with ICAM-1. Put plainly: Endotoxin-induced ICAM-1 expression on endothelial cells (FACS). The conditions noted are these: LPG pretreatment 1 h. The class given is cell-based, human. The protocol: Endothelial cells pretreated with LPG at indicated amounts for 1 h were subsequently challenged with endotoxin. Washed cells incubated with monoclonal antibody specific for E-selectin or ICAM-1 were counter stained with fluorescein labeled anti-murine antibody, fixed and analyzed by FACS.

Data set [3] has as its system THP-1 cells. Put plainly: THP-1 cell viability. The class given is cell-based, human. The conditions noted are these: LPG 0.01 to 2 μM, data not shown.
The test system of the next data set is VCAM-1. Put plainly: Endotoxin-induced VCAM-1 expression on endothelial cells (FACS). The class given is cell-based, human.
A further data set concerns TNF-α mRNA. Put plainly: TNF-α mRNA expression and stability after endotoxin. The class given is cell-based, human.

lipophosphoglycan [LPG]: in data set [1] (2 μM LPG pretreatment 2 h), the “inhibition of HIV p24 antigen induction in response to LPS” value is listed as 66%, the “inhibition of HIV p24 antigen induction in response to PMA” value is reported as 82% and the “inhibition of HIV p24 antigen induction in response to TNF-α” value turned out to be 60%. For the same substance, the “inhibition of basal production of HIV p24 antigen” value in data set [1] (2 μM LPG) amounted to 90%. Further, the “time at which LPG binding was obvious” value in the data set with THP-1 cells [2] turned out to be 16 min. For the same substance, the LPG binding entry with THP-1 cells [2] (1 h) is “significant LPG was bound”. In addition, the “effect on endotoxin-mediated expression of ICAM-1” value in the data set with ICAM-1 is given as “strongly suppressed; also recorded: blockage or suppression”. In addition, the “effect on cell viability” value with THP-1 cells [3] is on record as “not affected”. The “effect on endotoxin-mediated expression of VCAM-1” value with VCAM-1 is reported as “strongly suppressed”. The “effect on endotoxin induction of TNF-α expression” value with TNF-α mRNA (LPG added 2 h after endotoxin) is “effective”. In the data set on TNF-α mRNA (LPG added 4 h prior to addition of endotoxin), the “effect on endotoxin induction of TNF-α expression” value was “significantly suppressed”. The “effect on TNF-α mRNA stability” value in the data set with TNF-α mRNA (actinomycin D, data not shown) is on record as “minimal effect”.
